Assay results: patent US20050180982A1, “Cadherin-11 expression, an assay and treatment for cellular invasiveness” (THE UNIVERSITY OF BRITISH COLUMBIA, priority 1998, published 2005)

What was measured:
[1] = system: cad-6 mRNA in human granulosa cells; assay: Specificity of antisense in granulosa cells, Northern blot, cad-6 probe; type: cell-based; settings: 0.5-5 M, 24 hours
Protocol: (§1) In order to determine the specificity of OB-1, the effect of OB-1 was determined in human granulosa cells. Human granulosa cells express three cadherin subtypes (cad-11, cad-6 and N-cad) as they undergo spontaneous luteinization in culture. Granulosa cells which had been cultured for 36 hours were treated with OB-1 or OB-3 (0.5-5 M). The cultures were maintained for a further 24 hours, after which the cells were harvested for Northern analysis. Northern blots were probed with cad-11, cad-6, or N-cadherin (neural cadherin) cDNA probes as previously described. OB-1 caused a reduction in the levels of the cad-11 RNA transcript in a dose-dependent manner but had no effect on cad-6 or N-cadherin mRNA levels. In contrast.

[2] = system: PC3 cells treated with TGF-1
[3] = system: PC3 cells treated with TGF-1; assay: Effect of oligonucleotides on PC3 cells treated with TGF-1; design: cell interactions and attachment: dose or concentration left out as unconfirmed; settings: for 24 hours
[4] = system: cad-11 RNA transcript in human granulosa cells; assay: Specificity of antisense in granulosa cells, Northern blot, cad-11 probe; type: cell-based; design: dose or concentration left out as unconfirmed; settings: 24 hours, dose-dependent manner for OB-1
Protocol: as §1

[5] = system: BeWo choriocarcinoma cells; assay: BeWo choriocarcinoma cells cultured with cAMP, differentiation and fusion; type: cell-based
human decidual cells [6] = assay: Effect on primary cultures of human decidual cells; design: cell interactions and attachment: dose or concentration left out as unconfirmed; settings: for 24 hours
[7] = system: E-cad in cytotrophoblasts isolated from term placenta; assay: Western blot of E-cad in term placenta cytotrophoblasts treated with oligonucleotide; type: cell-based, human; settings: 5 NI, further 24 or 48 hours
Protocol: (§2) Cellular aggregation in these cultures is observed after approximately 12 hours, with syncytial structures being observed after approximately 24 hours. After 72 hours, multinucleated syncytium is the predominant cell feature in these cultures. As described above, the terminal differentiation and fusion of these cells is associated with an increase in cad-11 mRNA and protein expression levels and a concomitant decrease in E-cad expression.
(§3) The effects of OB-1 on the differentiation of these trophoblasts isolated from term placenta was determined. Cytotrophoblasts were cultured for 0, 6, 12 or 24 hours before being treated with either OB-1 or OB-3 (5 NI). The cultures were maintained for a further 24 or 48 hours, after which the cells were harvested for Western blot analysis.

[8] = system: N-cadherin mRNA in human granulosa cells; assay: Specificity of antisense in granulosa cells, Northern blot, N-cadherin probe; type: cell-based; settings: 0.5-5 M, 24 hours
Protocol: as §1

villous cytotrophoblasts [9] = assay: Reversibility of oligonucleotide effects on villous cytotrophoblasts; type: cell-based, human; settings: 48 hours with oligonucleotide, washed, further 24 hours
Protocol: To determine whether the effects of OB-1 on villous cytotrophoblasts are reversible, cells were cultured in the presence of OB-1 or OB-3 for 48 hours. The cells were washed thoroughly with PBS. The culture medium was then replaced and the cells cultured for a further 24 hours. […] The majority of cells (90%) detached from the culture and dish. Cad-11 was not detected in the remaining cells.

[10] = system: Cos-1 cells transfected with the steroid acute regulatory protein; assay: Non-specific effects on cell number and steroidogenic capacity in Cos-1 cells; type: cell-based; design: cell number (Coulter cell counter): dose or concentration left out as unconfirmed
Protocol: Non-specific effects of the antisense oligonucleotides on cell viability and the steroidogenic capacity of cells was determined using Cos-1 cells transfected with the steroid acute regulatory protein (from Dr. J. F. Strauss, III. University of Pennsylvania, Philadelphia, Pa.). […] The COS-1 cells were cultured in the presence or absence of varying concentrations of OB-1 OR OB-3 (0.5-5 M) for 48 hours. The cell number present in each culture was determined using a Coulter™ cell counter and P4 concentrations present in the culture medium using a Progesterone RIA™ kit. As determined by these parameters.

[11] = system: cad-11 in cytotrophoblasts isolated from term placenta; assay: Western blot of cad-11 in term placenta cytotrophoblasts treated with oligonucleotide; type: cell-based, human; settings: 5 NI, further 24 or 48 hours
Protocol: as §2, §3

[12] = system: cad-11 in decidual explants; assay: Western blot of cad-11 in decidual explants; type: cell-based, human; design: dose or concentration left out as unconfirmed
Protocol: Co-cultures of decidua parietalis and villous placenta were established on a three-dimensional gel of rat tail collagen. The decidua and the villous tissue were cut into 1-2 mm cubes, explants were placed in 35 nun culture dishes containing 0.1 ml of the collagen mixture. After the gel had formed, a piece of villous tissue, suspended in 0.05 ml of culture medium was placed on to the exposed decidual surface. After 2 hours, the plates were flooded with culture medium. Stable adhesion between the villous and decidual tissues occurred within 48 hours. Samples are harvested after 48, 72, or 96 hours of culture. Tissues were embedded in OCT compound, snap frozen, and frozen section prepared. Blocks containing the co-cultures were cut in-full in order to obtain information about the three dimensional aspect of the contact sites. Contact sites were identified by hematoxylin staining and confirmed by immunostaining for cytokeratin. In the areas of contact, there was cytotrophoblast layering leading to localized erosion of the syncytial trophoblast and the formation of an extravillous column, which penetrates the underlying decidual explant.
In order to determine whether the cad-11 antisense oligonucleotides could decrease cad-11 expression in tissue explants, decidual explants were cultured in the presence of OB-1 or OB-3 (5 M) for 24 hours.

villous cytotrophoblasts [13] = assay: P4 and hCG in culture medium of villous cytotrophoblasts (functional differentiation); type: cell-based, human; settings: compared with OB-3 treated cells
Protocol: To determine whether reduced cad-11 expression in villous cytotrophoblasts would affect the functional differentiation of the primary cell cultures, concentrations of P4 and hCG were measured in the culture medium. The number of cells present in these cell cultures was determined by DNA content.

[14] = system: cytotrophoblasts isolated from term placenta; assay: Morphology of cytotrophoblasts by light microscopy and indirect immunofluorescence; type: cell-based, human
Text: The effect of OB-1 and OB-3 on the morphology of the cytotrophoblast was examined by light microscopy and indirect immunofluoresence.

human decidual cells [15] = system: human decidual cells
[16] = system: Villous cytotrophoblasts isolated from the human term placenta, cultured 72 hours

Substance: OB-1: cad-11 antisense oligonucleotide, 18 mer, phosphothiorate: GGC GGC TTG TAA ACA GTA (SEQ ID NO:1) (antisense GGCGGCTTGTAAACAGTA; all phosphorothioate, sugars by position and methylation of C not given here; listed as Homo sapiens)
- cad-6 mRNA levels [1]: no effect
- viability by trypan blue staining [2]: no longer viable
- cell interactions and attachment [3]: lose interactions with one another, and detach from the plastic in a dose-dependent manner
- levels of the cad-11 RNA transcript [4]: reduction
- cellular differentiation and fusion ([5]; cells cultured in the presence of cAMP for 12 hours): inhibiting cellular differentiation and fusion
- membrane integrity of the syncytial structures ([5]; syncytial structures formed after 24 hours of cAMP): disrupted the membrane integrity
- cell interactions and attachment (human decidual cells [6]): lose interactions with one another and detach from the plastic in a dose-dependent manner
- E-cad levels [7]: remained constant
- N-cadherin mRNA levels [8]: no effect
- cad-11 in the remaining cells (villous cytotrophoblasts [9]): not detected
- cell viability after wash-out (villous cytotrophoblasts [9]): no longer viable
- cells detached from the culture dish (villous cytotrophoblasts [9]): 90%
- steroidogenic capacity (P4 concentrations in culture medium, RIA) ([10]; 0.5-5 M for 48 hours): did not have a significant effect
- cell number (Coulter cell counter) ([10]; for 48 hours): did not have a significant effect
- cad-11 expression with time in culture [11]: failed to up-regulate
- cad-11 expression [12]: significantly reduced
- levels of P4 in the culture medium (villous cytotrophoblasts [13]): significantly lower
- levels of hCG in the culture medium (villous cytotrophoblasts [13]): significantly lower
- composition of cellular structures formed (fusion) ([14]; indirect immunofluorescence for E-cadherin): mononucleate cytotrophoblasts
- ability of the cytotrophoblasts to aggregate ([14]; light microscopy): did not appear to affect
- viability by trypan blue staining (human decidual cells [15]): no longer viable
- viability of syncytial structures (trypan blue) [16]: no longer viable
- structures observed (phase contrast microscopy) ([16]; oligonucleotide added after 72 hours of culture, OB-1 for 24 hours): cellular debris
